{"source": "patent US9925166B2", "about": "“Methods of treating an overweight or obese subject” (Zafgen, Inc., priority 2008, dated 2018)", "key": {"[1]": {"test": "Plasma concentration after oral administration in a non-enterically coated capsule (Example 7)", "assay_type": "in vivo, Sprague-Dawley rats", "conditions": "30 mg/kg capsule oral", "description": "A study was undertaken to investigate absorption of fumagillin orally administered in a capsule. Five male Sprague-Dawley rats were fasted, and were then each orally administered a non-enterically coated capsule containing 30 mg/kg of fumagillin. […] (graphically illustrated as 0.17), 20 min. (graphically illustrated as 0.33), 30 min. […]"}, "diet-induced obese mice [2]": {"system": "diet-induced obese mice", "test": "Very low dose oral and subcutaneous weight loss study in diet-induced obese mice (Examples 3 and 4)", "assay_type": "in vivo, C57BL/6NTac mice", "excerpt": "(§1) Mice were divided into two groups, a diet-induced obese group and a lean group. For the diet-induced obese group, fifteen week-old C57BL/6NTac mice, maintained prior to and during the study on a diet containing 60% fat on a kilocalorie basis, were further separated into six groups, eight animals per group. Average body weight of these diet-induced obese mice was 38 g at the start of the study. For the lean group, fifteen week-old C57BLI6NTac mice, maintained on a diet containing 4.3% by weight fat prior to and during the study, were further separated into two groups, eight animals per group. Average body weight of these lean mice was 28 g at the start of the study.\n(§2) Fumagillin was administered to three of the diet-induced obese mice groups by oral gavage as a solution in 10% DMSO, at doses of 0.1 mg/kg/day, 0.3 mg/kg/day, and 1 mg/kg/day respectively. A fourth diet-induced obese mice group received the 10% DMSO vehicle only by oral gavage. A group of lean mice was administered fumagillin by oral gavage as a solution in 10% DMSO at a dose of 1 mg/kg/day. Treatments were administered daily for 11 days.\nas §1, with “A study was undertaken to analyze whether oral administration compared to subcutaneous administration of fumagillin affected weight loss in diet-induced obese mice. Mice” for “Mice”\nFumagillin was administered to three of the diet-induced obese groups by oral gavage as a solution in 10% DMSO, at doses of 0.1 mg/kg/day, 0.3 mg/kg/day, and 1 mg/kg/day respectively. A fourth diet-induced obese group received the 10% DMSO vehicle-only by oral gavage. A fifth diet-induced obese group received fumagillin at a 1 mg/kg/day dose by subcutaneous injection of a solution in 10% DMSO. A sixth diet-induced obese group received the 10% DMSO vehicle only by subcutaneous injection. A group of lean mice was administered fumagillin by oral gavage as a solution in 10% DMSO at a dose of 1 mg/kg/day.\nAnother group of lean mice was administered fumagillin by subcutaneous injection of a solution in 10% DMSO at a dose of 1 mg/kg/day. Treatments were administered daily for 14 days."}, "diet-induced obese mice [3]": {"system": "diet-induced obese mice", "test": "Percent fat change and lean mass change by NMR in diet-induced obese mice, 28 days (Example 6)", "assay_type": "in vivo, C57BL6J mice", "description": "Mice were first divided into three groups, a control group, a diet-induced obese group, and a lean group. For the diet-induced obese group, C57BL6J mice maintained prior to and during the study on a diet containing 40% fat on a kilocalorie basis were further divided into two groups. For the lean group, C57BL6J mice were maintained on a diet containing 4% by weight fat prior to and during the study. Each of the groups was subsequently divided as described below.\nThe lean group was administered 1% DMSO vehicle for 28 days. Percent fat change and percent lean mass change from baseline were determined by NMR after 28 days."}, "[4]": {"conditions": "humans, 30 mg/day to 60 mg/day; Molina et al., Seneca; cited from earlier work"}, "blood cells": {"system": "blood cells", "test": "Complete blood analysis (CBC) after oral fumagillin in lean rats (Example 9)", "assay_type": "in vivo, Sprague-Dawley rats", "conditions": "for lymphocyte count / neutrophil count / white blood cell count: 3 mg/kg oral gavage on day 3 and day 9", "description": "Male lean Sprague-Dawley rats were divided into two groups, ten rats per group. One group of rats received fumagillin by oral gavage as a solution in 10% DMSO, at dose of 3 mg/kg. Administration of fumagillin to this group of rats was performed on day 3 and day 9 of the study. The other group of rats was administered by oral gavage a solution of 10% DMSO/90% water (vehicle-only). Administration of vehicle to this group of rats was performed on day 3 and day 9 of the study. Blood samples were collected daily for complete blood analysis (CBC)."}, "lean mice": {"system": "lean mice", "test": "Oral and subcutaneous fumagillin in lean mice (Examples 3 and 4)", "assay_type": "in vivo, C57BLI6NTac mice", "excerpt": "as §1, §2\nA study was undertaken to analyze whether oral administration compared to subcutaneous administration of fumagillin affected weight loss in diet-induced obese mice. Mice were divided into two groups, a diet-induced obese group and a lean group. […]"}, "[5]": {"conditions": "mouse, 33 mg/kg/day; Ingbar et al.; cited from earlier work"}}, "note": "Several values for one entry are separate records, joined by “and”; a condition that tells them apart may be missing. Equal entries are not always repeated.", "data": [{"compound": "CO[C@@H]1[C@H](OC(=O)/C=C/C=C/C=C/C=C/C(=O)O)CC[C@]2(CO2)[C@H]1[C@@]1(C)O[C@@H]1CC=C(C)C", "note": "[fumagillin]", "values": [{"measurement": "ZGN-201 Conc. in Rat Plasma, individual animals", "setting": "[1]; male rats 1-5, time point 0 hr", "result": "BQL (BQL: 1 ng/mL)"}, {"measurement": "ZGN-201 Conc. in Rat Plasma, individual animals", "setting": "[1]; male rats 1-5, time point 0.17 hr", "result": "BQL (BQL: 1 ng/mL)"}, {"measurement": "ZGN-201 Conc. in Rat Plasma, individual animals", "setting": "[1]; male rats 1-5, time point 0.33 hr, listed as ZGN-201", "result": "5.3 ng/mL and 1.9 ng/mL and 1.6 ng/mL and 1.8 ng/mL and 5.2 ng/mL"}, {"measurement": "ZGN-201 Conc. in Rat Plasma, individual animals", "setting": "[1]; male rats 1-5, time point 0.5 hr, listed as ZGN-201", "result": "14.3 ng/mL and 4.5 ng/mL and 3.6 ng/mL and 3 ng/mL and 11.4 ng/mL"}, {"measurement": "ZGN-201 Conc. in Rat Plasma, individual animals", "setting": "[1]; male rats 1-5, time point 1 hr, listed as ZGN-201", "result": "36.1 ng/mL and 14.5 ng/mL and 8.9 ng/mL and 3.6 ng/mL and 117.9 ng/mL"}, {"measurement": "ZGN-201 Conc. in Rat Plasma, individual animals", "setting": "[1]; male rats 1-5, time point 2 hr, listed as ZGN-201", "result": "81.2 ng/mL and 98.2 ng/mL and 125.4 ng/mL and 9.5 ng/mL and 156.4 ng/mL"}, {"measurement": "ZGN-201 Conc. in Rat Plasma, individual animals", "setting": "[1]; male rats 1-5, time point 8 hr, listed as ZGN-201", "result": "36.6 ng/mL and 47.1 ng/mL and 141.3 ng/mL and 31.6 ng/mL and 116.8 ng/mL"}, {"measurement": "absorption through the stomach", "setting": "[1]; rats", "result": "poorly absorbed through the stomach"}, {"measurement": "time after administration at which absorption is first observed", "setting": "[1]; rats", "result": 20, "unit": "min"}, {"measurement": "time of peak absorption after administration", "setting": "[1]; rats", "result": "approximately 2 hrs"}, {"measurement": "maximal concentration absorbed into the blood", "setting": "[1]; rats, time point 2", "result": "approximately 100 ng/ml"}, {"measurement": "concentration at 0.33 hr", "setting": "[1]; male, Sprague-Dawley, rat, plasma, oral, 30 mg/kg, male rats, time point 0.33 hr, read-out: ZGN-201 Conc. in Rat Plasma, Mean", "result": 3, "unit": "ng/mL"}, {"measurement": "concentration at 0.5 hr", "setting": "[1]; male, Sprague-Dawley, rat, plasma, oral, 30 mg/kg, male rats, time point 0.5 hr, read-out: ZGN-201 Conc. in Rat Plasma, Mean", "result": 7, "unit": "ng/mL"}, {"measurement": "concentration at 1 hr", "setting": "[1]; male, Sprague-Dawley, rat, plasma, oral, 30 mg/kg, male rats, time point 1 hr, read-out: ZGN-201 Conc. in Rat Plasma, Mean", "result": 36, "unit": "ng/mL"}, {"measurement": "concentration at 2 hr", "setting": "[1]; male, Sprague-Dawley, rat, plasma, oral, 30 mg/kg, male rats, time point 2 hr, read-out: ZGN-201 Conc. in Rat Plasma, Mean", "result": 94, "unit": "ng/mL"}, {"measurement": "concentration at 8 hr", "setting": "[1]; male, Sprague-Dawley, rat, plasma, oral, 30 mg/kg, male rats, time point 8 hr, read-out: ZGN-201 Conc. in Rat Plasma, Mean", "result": 75, "unit": "ng/mL"}, {"measurement": "weight loss as a percentage of pre-study weight", "setting": "diet-induced obese mice [2]; 0.1 mg/kg/day oral gavage, end of study (14 days)", "result": 7, "unit": "%"}, {"measurement": "weight loss as a percentage of pre-study weight", "setting": "diet-induced obese mice [2]; 0.3 mg/kg/day oral gavage, end of study (14 days)", "result": 11, "unit": "%"}, {"measurement": "weight loss as a percentage of pre-study weight", "setting": "diet-induced obese mice [2]; 1 mg/kg/day oral gavage, end of study (14 days)", "result": 12, "unit": "%"}, {"measurement": "weight loss as a percentage of pre-study weight", "setting": "diet-induced obese mice [2]; 1 mg/kg/day subcutaneous injection, 14 days, end of study", "result": 7, "unit": "%"}, {"measurement": "non-effective dose", "setting": "diet-induced obese mice [2]; oral gavage, weight loss, not identified, concluded", "result": "below 0.1 mg/kg/day"}, {"measurement": "weight loss", "setting": "diet-induced obese mice [3]; 0.3 mg/kg/day oral gavage", "result": "lost significant amounts of weight"}, {"measurement": "weight loss", "setting": "diet-induced obese mice [3]; 1.0 mg/kg/day oral gavage", "result": "losing a greater amount of weight"}, {"measurement": "loss of lean body mass (NMR)", "setting": "diet-induced obese mice [3]; 0.3 or 1.0 mg/kg/day oral gavage", "result": "without resulting in substantial loss of lean body mass"}, {"measurement": "blood disorders developed by patients", "setting": "[4]", "result": "thrombocytopenia, leukopenia, and neutropenia"}, {"measurement": "lymphocyte count", "setting": "blood cells; day 3", "result": "approximately 4000 lymphocytes/4"}, {"measurement": "neutrophil count", "setting": "blood cells; day 3", "result": "approximately 650 neutrophils/4"}, {"measurement": "white blood cell count", "setting": "blood cells; day 3", "result": "approximately 5000 white blood cells/4"}, {"measurement": "lymphocyte count", "setting": "blood cells; day 9", "result": "approximately 3900 lymphocytes/4"}, {"measurement": "neutrophil count", "setting": "blood cells; day 9", "result": "approximately 1100 neutrophils/4"}, {"measurement": "white blood cell count", "setting": "blood cells; day 9", "result": "approximately 5200 white blood cells/4"}, {"measurement": "development of a blood disorder", "setting": "blood cells; 3 mg/kg oral gavage, rats", "result": "do not result in development of a blood disorder"}, {"measurement": "variation vs vehicle-only rats in white blood cell, lymphocyte and neutrophil count", "setting": "blood cells; 3 mg/kg oral gavage, statistical analysis", "result": "not statistically significant"}, {"measurement": "weight change", "setting": "lean mice; 1 mg/kg/day oral gavage", "result": "no weight change"}, {"measurement": "weight loss", "setting": "lean mice; 1 mg/kg/day subcutaneous", "result": "no weight loss"}, {"measurement": "side-effect of administration (wasting)", "setting": "[5]", "result": "severe weight loss"}]}]}
